Laboratory results from patent US8367835B2, “Cyclic amine-1-carboxylic acid ester derivative and pharmaceutical composition containing the same” (Dainippon Sumitomo Pharma Co., Ltd., priority 2008, dated 2013).

What follows are molecules tested against T1, TRPV1 (Rattus norvegicus, UniProt O35433) (assay: TRPV1 agonist activity by intracellular calcium level (FLIPR method)). Details: 1 μM; rat dorsal root ganglion primary culture cells; read-out: Value (%) when fluorescence intensity for capsaicin (1 μM) is 100%.
T1 construct: using cultured rat dorsal root ganglion cells which express TRPV1 abundantly; endogenous in cells; host or cells: primary culture of dorsal root ganglion cells from 7 day old Wistar rat
T1 sequence (O35433 whole entry): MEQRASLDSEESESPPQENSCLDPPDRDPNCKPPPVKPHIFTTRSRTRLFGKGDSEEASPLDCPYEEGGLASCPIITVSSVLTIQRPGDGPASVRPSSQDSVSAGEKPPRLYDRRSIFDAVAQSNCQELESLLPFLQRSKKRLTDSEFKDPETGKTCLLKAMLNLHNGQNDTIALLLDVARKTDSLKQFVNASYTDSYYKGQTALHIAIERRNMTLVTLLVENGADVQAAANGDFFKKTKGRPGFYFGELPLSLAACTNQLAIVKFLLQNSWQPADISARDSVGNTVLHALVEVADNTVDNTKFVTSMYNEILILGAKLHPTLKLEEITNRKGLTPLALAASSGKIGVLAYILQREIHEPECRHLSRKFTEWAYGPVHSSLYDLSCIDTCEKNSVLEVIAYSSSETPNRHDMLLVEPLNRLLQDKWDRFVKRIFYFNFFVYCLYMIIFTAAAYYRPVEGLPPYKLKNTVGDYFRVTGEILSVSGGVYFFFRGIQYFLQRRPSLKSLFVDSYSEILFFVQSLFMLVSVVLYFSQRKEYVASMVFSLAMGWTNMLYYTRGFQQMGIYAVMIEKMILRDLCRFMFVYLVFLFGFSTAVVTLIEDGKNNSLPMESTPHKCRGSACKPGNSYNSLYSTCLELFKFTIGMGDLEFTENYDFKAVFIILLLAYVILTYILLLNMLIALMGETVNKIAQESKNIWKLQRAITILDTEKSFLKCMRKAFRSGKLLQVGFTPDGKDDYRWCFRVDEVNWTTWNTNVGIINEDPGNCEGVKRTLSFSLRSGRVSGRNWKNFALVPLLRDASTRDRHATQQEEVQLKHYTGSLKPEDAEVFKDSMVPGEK
Assay type: cell-based
From the text: The test is to measure the elevation of intracellular calcium level as the indicator of TRPV1 agonist activity of a test compound using cultured rat dorsal root ganglion cells which express TRPV1 abundantly, and carried out in accordance with the method of Jerman et al. (Jerman, J. C. et al., Comparison of effects of anandamide at recombinant and endogenous rat vanilloid receptors. Br J Anaesth, 2002. 89(6): p. 882-7). More specifically, the dorsal root ganglion was removed from a 7 day old Wistar rat, and the cells were isolated by collagenase-trypsin treatment. Subsequently, the primary cells was cultured in a CO2 incubator controlled at 5% CO2 and 37° C. for 2 days. The culture medium used was Neurobasal™ medium supplemented with L-glutamine, nerve growth factor, N-2-Supplement, Penicillin-Streptomycin, 5-Fluoro-2′-deoxyuridine (culture day 1 only) were added to.
FLIPR^TETRA system (Molecular Devices Corp.) was used to measure the intracellular calcium concentration. As an indicator of TRPV1 agonistic activity, the fluorescence intensity elevation was monitored when a test compound is applied to the rat dorsal root ganglion primary culture cells loaded with a calcium-sensitive fluorescent reagent.

Row | SMILES | Emax at 1 µM
1 | COc1cc(CNC(=O)[C@@H]2CCN(C(=O)O[C@H]3CC[C@@H](C(C)(C)C)CC3)C2)ccc1O [Example 34] | 72%
2 | COc1cc(CNC(=O)C2CN(C(=O)Oc3ccccc3C(C)C)C2)ccc1O [Example 45, 2-isopropylphenyl 3-(4-hydroxy-3-methoxybenzylcarbamoyl)-azetidine-1-carboxylate] | 72%
3 | COc1cc(CNC(=O)C2CCN(C(=O)Oc3ccccc3C(C)C)CC2)ccc1O [Example 41, 2-isopropylphenyl 4-(4-hydroxy-3-methoxybenzylcarbamoyl)-piperidine-1-carboxylate] | 83%
4 | CC[C@H]1CCCC[C@H]1OC(=O)N1CCC(C(=O)NCc2ccc(O)c(OC)c2)CC1 (relative stereo) [Example 13, cis-2-ethylcyclohexyl 4-(4-hydroxy-3-methoxybenzylcarbamoyl)-piperidine-1-carboxylate] | 81%
5 | COc1cc(CNC(=O)C2CCN(C(=O)Oc3cccc(C(C)C)c3)CC2)ccc1O [Example 43] | 68%
6 | COc1cc(CNC(=O)C2CN(C(=O)O[C@H]3CC[C@@H](C(C)C)CC3)C2)ccc1O [Example 24] | 84%
7 | COc1cc(CNC(=O)C2CCN(C(=O)O[C@H]3CC[C@H](C(C)(C)C)CC3)CC2)ccc1O [Example 6] | 80%

Now from value to molecule:

Row | Emax at 1 µM | SMILES
8 | 81% | CC[C@H]1CC[C@@H](OC(=O)N2CC[C@H](C(=O)NCc3ccc(O)c(OC)c3)C2)CC1 [Example 28]
9 | 71% | COc1cc(CNC(=O)C2CN(C(=O)O[C@H]3CC[C@H](C(C)C)CC3)C2)ccc1O [Example 25]
10 | 80% | COc1cc(CNC(=O)C2CCN(C(=O)O[C@H]3CC[C@@H](C)CC3)CC2)ccc1O [Example 3]
11 | 73% | CCC1(CC)CCC(OC(=O)N2CC[C@@H](C(=O)NCc3ccc(O)c(OC)c3)C2)CC1 [Example 33]
12 | 92% | COc1cc(CNC(=O)C2CCN(C(=O)O[C@H]3CCC[C@H](C)C3)CC2)ccc1O [Example 10]
13 | 77% | COc1cc(CNC(=O)C2CCN(C(=O)OC3CCCCC3)CC2)ccc1O [Example 48, cyclohexyl 4-(4-hydroxy-3-methoxybenzylcarbamoyl)-piperidine-1-carboxylate]
14 | 80% | CCCC[C@H]1CC[C@@H](OC(=O)N2CC(C(=O)NCc3ccc(O)c(OC)c3)C2)CC1 [Example 22]
15 | 78% | COc1cc(CNC(=O)[C@H]2CCN(C(=O)O[C@H]3CC[C@@H](C(C)(C)C)CC3)C2)ccc1O [Example 30]
16 | 82% | C=C(C)[C@@H]1CC[C@@H](C)C[C@H]1OC(=O)N1CC(C(=O)NCc2ccc(O)c(OC)c2)C1 [Example 26, (1R,2S,5R)-2-isopropenyl-5-methylcyclohexyl 3-(4-hydroxy-3-methoxybenzylcarbamoyl)-azetidine-1-carboxylate]
17 | 86% | COc1cc(CNC(=O)[C@H]2CCN(C(=O)OC3CCC(C)(C)CC3)C2)ccc1O [Example 27, 4,4-dimethylcyclohexyl (S)-3-(4-hydroxy-3-methoxybenzylcarbamoyl)-pyrrolidine-1-carboxylate]
18 | 84% | COc1cc(CNC(=O)C2CN(C(=O)OC3CC(C)(C)CC(C)(C)C3)C2)ccc1O [Example 19]
19 | 77% | CCCC[C@H]1CC[C@H](OC(=O)N2CC(C(=O)NCc3ccc(O)c(OC)c3)C2)CC1 [Example 23]
20 | 68% | COc1cc(CNC(=O)[C@@H]2CCN(C(=O)OC3CCC(C)(C)CC3)C2)ccc1O [Example 31, 4,4-dimethylcyclohexyl (R)-3-(4-hydroxy-3-methoxybenzylcarbamoyl)-pyrrolidine-1-carboxylate]

Same assay, conditions: read-out: Value (%) when fluorescence intensity for capsaicin (1 μM) is 100%, 1 μM; rat dorsal root ganglion primary culture cells

Row | SMILES | Emax at 1 µM
21 | COc1cc(CNC(=O)C2CCN(C(=O)O[C@H]3CCCC[C@@H]3C)CC2)ccc1O (relative stereo) [Example 47, (1S*,2S*)-2-methylcyclohexyl 4-(4-hydroxy-3-methoxybenzylcarbamoyl)-piperidine-1-carboxylate] | 85%
22 | COc1cc(CNC(=O)C2CCN(C(=O)O[C@@H]3CCCC[C@@H]3C)CC2)ccc1O [Example 11] | 94%
